Legend:
LC3B = LC3B (Homo sapiens, UniProt Q9GZQ8); experiment: OI-RD detection of affinity activity with LC3B; type: binding; parameters: Gly-Gly (two glycines added in place of the start Met); His8 (followed by TEV site) (N, cleaved yes); GST (from the pGEX-6P1 backbone) (N, cleaved yes); made in house; host or cells: Escherichia coli BL21(DE3)pLysS; settings: LC3B 238 nM, read-out: Kd (nM), equilibrium dissociation constant of affinity reaction between the compound and LC3B detected by OI-RD
Description: Each compound was dot printed 3 copies. The compounds that not fixed on surface of the chips were washed, and the chips were sealed and cleaned. OI-RD microscope was used to scan the images. […] The chips were washed and scanned. OI-RD images before, during and after incubation with target protein were obtained. The signal change in real-time dynamic change image was analyzed, and the signal was collected once per 10 millisecond.

[1] = tested on: lipid droplets in 3T3-L1 fat precursor cell differentiated fat cells; experiment: Lipid droplets in 3T3-L1 fat precursor cell differentiated fat cells; type: cell-based, mouse; settings: 3T3-L1 differentiated fat cells, 5 μM, 24 h
[2] = tested on: lipid droplets in wild type MEF cells; experiment: Reduction of OA-induced lipid droplets in wild type MEF cells (BODIPY 493/503 staining); type: cell-based, mouse; settings: MEF, unconjugated compound 5 μM
Description: (5) OA-BSA stock solution was prepared into OA-BSA working solution (50× final concentration, 200 μM), and 40 μl of OA-BSA working solution was added to each well to induce lipid droplets. For the non-OA induction group, 40 μl of 10% BSA solution was added to the control well, and the amount of BSA was the same as that of the experimental group.
Compounds were formulated into DMSO stock solutions. Stock compounds were diluted with DMSO into the indicated concentrations of working solutions prior to use in the treatment of cells. After induction of the lipid droplets with OA for the indicated time, the test compounds were added to the cells respectively. Control wells were replaced with the equal volume of DMSO. Unless otherwise stated, the compounds were diluted into 10× solutions using the culture medium and added to the culture medium for 24 hours of incubation. Cells were treated with compounds in a 37° C. incubator with 5% CO2.
(3) The original medium in the multi-well plates was removed, washed and the cells was fixed, 1 ml of the BODIPY solution prepared in (1) was added to each well, and stained for 15 minutes. The staining solution was aspirated and washed with 1×PBS.
(5) The coverslips laid in the multi-well plates were removed, and imaged with the Zeiss 880 confocal microscope after mounted, and analyzed the size and number of lipid droplets with ImageJ.
Wild type MEF cells were cultured in a DMEM culture medium containing 10% FBS. Cells were plated according to the method as described above (12 well plate was plated with aseptic treated slides). When cells grew to a confluence of 60-70%, lipid droplets were induced with OA for 30 h according to the method as described above.
At the time point of 6th hour after initiation of induction, the cells were treated (treated for 24 hours) with Compound 1A or Compound 2A (compound concentrations were 50 μM, 15.8 μM, 5 μM, 1.58 μM, 0.5 μM, 0.158 μM) according to the method as described above.

db/db mice = experiment: Effect of the compound on db/db mouse; type: in vivo; settings: 30 mg/kg ip, 8 mice per group
Excerpt: Experimental animals: nineteen-week-old db/db male mice (C57BL/6J-Lepr^db/Lepr^db) were obtained from Shanghai Model Organisms Co., Ltd., and acclimatized for at least 1 week before experiments. The mice had ad libitum access to standard chow and water.
Normal control: The C57BL/6 male mice fed on standard irradiated chow diet (Shuyishuer Inc. cat. no. D12450J) from Changzhou Shuyishuer Biotechnology Co., Ltd. (Shuyishuer Inc.) were used as the normal control.
Mice were randomly divided into 7 groups, wherein 8 mice in each group, and the mice in each group were subjected to intraperitoneal injection to administer: (1) only vehicle (no DMSO) group: 0% DMSO+39% PEG300 (Selleck, cat. no. S6704)+5% Tween-80 (Selleck, cat. no. S6702)+56% distilled water, (2) DMSO group: 1% DMSO+39% PEG300+5% Tween-80+55% H2O (DMSO vehicle), (3) C3 group: Compound 3A was in DMSO vehicle, (4) C4 group: Compound 4A in DMSO vehicle, (5) SIII group: Sudan III DMSO vehicle, (6) GW5074 group: Compound A1 in DMSO vehicle, (7) DP group: Compound A5 in DMSO vehicle. For groups (3)-(7), the compound (30 mg/kg, administration volume 150 μL) was administered through intraperitoneally injection for consecutive 2 weeks, and once a day. The food and water intake were measured with an analytical electronic balance.
Bodyweight was weighed every day.
If time permitted, tail vein blood (30-50 μL) was collected every 1-3 days.
24 hours after the time point of the last injection, end point maxillary surface blood sampling was performed on each mouse. All mice were Euthanized by cervical dislocation, and then tissue sample (e.g., liver samples) were obtained and stored in Eppendorf tubes at −80° C. for assay.
12 days after initiation of administration, each mouse was scanned by a minispec nuclear magnetic resonance (NMR) instrument (Bruker LF50 II “Minispec” body composition analyzer, Bruker Optics) that was designed for experimental animals, and based on the measurement of solid and liquid parts of the samples, the body fat and lean body weight were determined by this device.
Serum: Tail vein blood samples (30-50 μL) were left to coagulate in […] blood collection tubes (Jiangsu Kangjian Medical Products Co., Ltd., model KJ002) at room temperature without interference, and then centrifuged at 2,000×g for 10 minutes at 4° C. to remove the clot. Supernatant was collected to obtain the serum.
Liver: Liver samples were obtained as described in (2). 100 mg of liver tissue was homogenized in 0.9 mL of absolute alcohol under ice-cold conditions, and then centrifuged (2,500 r.p.m/min, 10 min). Supernatant was collected, and then stored at −80° C.
The kits were used according to the instruction from manufacturer (TAG: TG kit, cat. no. A110-1-1; TC: T-CHO kit, cat. no. A111-1. FFA: NEFA kit, cat. No. A042-2-1; they were all from Nanjing Jiancheng Bioengineering Institute). TAG, TC and FFA levels in serum and liver samples were determined.
According to the lipidomic method as described above, the contents of liver total lipid, glycerolipid, sterol lipid, neutral sphingolipid and polar lipid were analyzed. The log 2-fold change (log2 FC) and statistical significance (p-value) relative to the DMSO group were calculated.

## O=C1Nc2ccc(I)cc2C1=Cc1cc(Br)c(O)c(Br)c1 [Compound A1, 3-(3,5-dibromo-4-hydroxylbenzylidene)-5-iodoindolin-2-one, reference compound]
LC3B
  Kd: 468 nM
[1]
  amount/size of lipid droplets: no significant effect
[2]
  lipid droplets (number and size): did not significantly decrease or become smaller
db/db mice
  mice died in the experiment: One mouse
